Measurements as given in patent publication US20260083722A1, “BIFUNCTIONAL DEGRADERS COMPRISING ELECTROPHILIC PROTACS THAT ENGAGE DCAF1 AND PHARMACEUTICAL COMPOSITIONS COMPRISING THE SAME” (THE SCRIPPS RESEARCH INSTITUTE, priority 2022, published 2026).
Where a SMILES comes first, the peptide text is derived from it. The star is where a group is joined. Cbz = O=C(OCc1ccccc1)*

Columns and labels:
[1] = target: T1, recombinant DCAF1-WT (a.a.'s 1046-1396) (Homo sapiens, UniProt Q9Y4B6); test: gel-ABPP with recombinant purified DCAF1-WT doped into HEK293T cell proteome; format: binding; details: for block of MY-11B labeling of recombinant DCAF1 by pre-treatment: 6.25-100 μM, MY-11B 25 μM, 1 h
T1 construct: form of DCAF1 containing the WD40 domain (amino acids (a.a.'s) 1046-1396); made in house
T1 sequence (Q9Y4B6 1046-1396): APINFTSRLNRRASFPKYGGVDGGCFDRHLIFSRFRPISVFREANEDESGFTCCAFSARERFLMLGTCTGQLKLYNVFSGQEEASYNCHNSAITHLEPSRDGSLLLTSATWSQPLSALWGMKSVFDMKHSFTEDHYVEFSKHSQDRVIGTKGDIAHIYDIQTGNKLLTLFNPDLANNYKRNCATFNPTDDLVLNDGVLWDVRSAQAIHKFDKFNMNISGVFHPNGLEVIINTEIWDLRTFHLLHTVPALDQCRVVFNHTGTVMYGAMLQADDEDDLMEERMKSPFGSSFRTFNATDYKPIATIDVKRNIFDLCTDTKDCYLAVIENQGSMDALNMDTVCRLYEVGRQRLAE
T1 sequence (Q16531 whole entry partner, the tested form may be a part): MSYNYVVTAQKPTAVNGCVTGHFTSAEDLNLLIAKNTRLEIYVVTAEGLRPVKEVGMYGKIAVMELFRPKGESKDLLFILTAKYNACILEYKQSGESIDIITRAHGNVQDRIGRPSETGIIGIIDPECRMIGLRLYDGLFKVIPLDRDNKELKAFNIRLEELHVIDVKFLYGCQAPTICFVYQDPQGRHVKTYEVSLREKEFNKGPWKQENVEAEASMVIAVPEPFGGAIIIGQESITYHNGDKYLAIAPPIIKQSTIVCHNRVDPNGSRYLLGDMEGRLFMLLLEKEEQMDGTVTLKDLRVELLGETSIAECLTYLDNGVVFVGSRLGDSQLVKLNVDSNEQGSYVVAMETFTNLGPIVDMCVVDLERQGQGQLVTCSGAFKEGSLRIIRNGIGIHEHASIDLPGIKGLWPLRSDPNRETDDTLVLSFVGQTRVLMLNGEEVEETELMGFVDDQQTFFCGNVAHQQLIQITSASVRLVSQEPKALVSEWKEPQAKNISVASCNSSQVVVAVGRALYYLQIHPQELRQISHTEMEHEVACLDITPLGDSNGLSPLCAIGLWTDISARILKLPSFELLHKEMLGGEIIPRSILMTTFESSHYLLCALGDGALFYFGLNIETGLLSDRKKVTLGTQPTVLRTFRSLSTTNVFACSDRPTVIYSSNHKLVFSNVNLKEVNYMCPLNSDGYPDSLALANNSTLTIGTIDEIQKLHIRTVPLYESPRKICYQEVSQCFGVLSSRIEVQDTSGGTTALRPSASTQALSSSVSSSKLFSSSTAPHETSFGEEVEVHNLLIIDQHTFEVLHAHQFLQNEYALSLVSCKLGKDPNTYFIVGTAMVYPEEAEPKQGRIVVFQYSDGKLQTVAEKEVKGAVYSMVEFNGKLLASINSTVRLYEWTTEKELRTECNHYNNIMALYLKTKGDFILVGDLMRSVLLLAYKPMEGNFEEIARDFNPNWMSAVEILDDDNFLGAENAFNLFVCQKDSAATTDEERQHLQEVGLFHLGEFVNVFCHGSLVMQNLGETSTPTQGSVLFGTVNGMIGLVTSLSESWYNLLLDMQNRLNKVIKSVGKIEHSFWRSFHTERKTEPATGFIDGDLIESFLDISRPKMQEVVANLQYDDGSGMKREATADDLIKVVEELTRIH
Text: FIG. 2 that azetidine acrylamides stereo- and site-selectively engage recombinant DCAF1_C1113. (A) Domain map of DCAF1 with the region used for recombinant protein studies marked in a bracket (a.a.'s 1046-1396) and C1113 highlighted in red. (B) Crystal structure of a DCAF1-Vpx complex (pdb: 5AJA). DCAF1 (a.a.'s 1046-1396) is shown in cyan, Vpx is shown in yellow, and C1113, which is located at the DCAF1-Vpx interface is shown in red. (C) Structures of alkyne-modified azetidine acrylamides MY-11A (5) and MY-11B (6). (D) Gel-ABPP showing the concentration-dependent reactivity of MY-11A and MY-11B (1 h) reactivity with recombinant, purified DCAF1-WT or the DCAF1-C1113A mutant (0.06 μg/μL of DCAF1 protein per sample) doped into HEK293T cell proteome (1 μg/μL). MY-11A/B labeling of proteins was visualized by CuAAC conjugation to an azide-rhodamine tag followed by SDS-PAGE and in-gel fluorescence scanning. Results are from a single experiment representative of two independent experiments. (E) Gel-ABPP showing the concentration-dependent effects of MY-1A and MY-1B on MY-11B reactivity with DCAF1-WT. Samples were treated with MY-1A/B for 2 h, followed by MY-11B (25 μM, 1 h) and analyzed as described in (D). Left, quantification of data presented as mean values±SEM from two independent experiments. Right, representative gel-ABPP results. (D, E) Lower images are Coomassie blue-stained gels corresponding to ABPP gels shown in upper images.
(A) Structures of candidate electrophilic PROTACs YT41R (7), YT41S (8), YT47R (9), and YT47S (10). (B) Gel-ABPP showing the concentration-dependent effects of YT41R and YT47R on MY-11B reactivity with DCAF1-WT protein (0.06 μg/μL of DCAF1 protein per sample) doped into HEK293T cell proteome (1 μg/μL). Also shown are the effects of YT41S and YT47S tested at a single concentration (100 μM). Samples were treated with heterobifunctional compounds for 2 h, followed by MY-11B (25 μM, 1 h) and analyzed as described in FIG. 2D. Left, representative gel-ABPP results. Lower image is Coomassie blue-stained gel corresponding to ABPP gel shown in upper image. Right, quantification of data presented as mean values±SEM from two independent experiments.
DCAF1 is a multi-domain substrate receptor for CRL4 ligases (FIG. 2A) that has diverse physiological and disease functions, including being co-opted by the HIV-2 virus to promote degradation of the antiviral host protein SAMHD1^27-28. […] We verified the stereo- and site-selective engagement of DCAF1_C1113 by azetidine acrylamides using alkynylated analogues of MY-1A and MY-1B (MY-11A (5) and MY-11B (6), respectively; FIG. 2C). For these experiments, we doped into HEK293T cell lysates a recombinantly expressed and purified form of DCAF1 containing the WD40 domain (amino acids (a.a.'s) 1046-1396), in complex with the CRL4 adaptor protein DDB1^31, and exposed these samples to varying concentrations of MY-11A or MY-11B. After 1 h, we assessed MY-11A and MY-11B engagement of DCAF1 by copper-catalyzed azide-alkyne cycloaddition (CuAAC)^32 with an azide-rhodamine reporter tag followed by SDS-PAGE and in-gel fluorescence scanning^33. […] We used gel-ABPP to quantify an in vitro target engagement value (TE50) of approximately 25 μM (95% C.I.=13-38 μM) for MY-1B labeling of DCAF1 (FIG. 2E, left).

DCAF1_C1113 = target: T2, DCAF1_C1113 (Homo sapiens, UniProt Q9Y4B6); test: cysteine-directed MS-ABPP (IA-DTB probe) in primary human T cells; format: cell-based; details: 3 h; for reactivity with DCAF1_C1113: 20 μM compound
T2 construct: endogenous in cells; host or cells: primary human T cells
T2 sequence (Q9Y4B6 whole entry): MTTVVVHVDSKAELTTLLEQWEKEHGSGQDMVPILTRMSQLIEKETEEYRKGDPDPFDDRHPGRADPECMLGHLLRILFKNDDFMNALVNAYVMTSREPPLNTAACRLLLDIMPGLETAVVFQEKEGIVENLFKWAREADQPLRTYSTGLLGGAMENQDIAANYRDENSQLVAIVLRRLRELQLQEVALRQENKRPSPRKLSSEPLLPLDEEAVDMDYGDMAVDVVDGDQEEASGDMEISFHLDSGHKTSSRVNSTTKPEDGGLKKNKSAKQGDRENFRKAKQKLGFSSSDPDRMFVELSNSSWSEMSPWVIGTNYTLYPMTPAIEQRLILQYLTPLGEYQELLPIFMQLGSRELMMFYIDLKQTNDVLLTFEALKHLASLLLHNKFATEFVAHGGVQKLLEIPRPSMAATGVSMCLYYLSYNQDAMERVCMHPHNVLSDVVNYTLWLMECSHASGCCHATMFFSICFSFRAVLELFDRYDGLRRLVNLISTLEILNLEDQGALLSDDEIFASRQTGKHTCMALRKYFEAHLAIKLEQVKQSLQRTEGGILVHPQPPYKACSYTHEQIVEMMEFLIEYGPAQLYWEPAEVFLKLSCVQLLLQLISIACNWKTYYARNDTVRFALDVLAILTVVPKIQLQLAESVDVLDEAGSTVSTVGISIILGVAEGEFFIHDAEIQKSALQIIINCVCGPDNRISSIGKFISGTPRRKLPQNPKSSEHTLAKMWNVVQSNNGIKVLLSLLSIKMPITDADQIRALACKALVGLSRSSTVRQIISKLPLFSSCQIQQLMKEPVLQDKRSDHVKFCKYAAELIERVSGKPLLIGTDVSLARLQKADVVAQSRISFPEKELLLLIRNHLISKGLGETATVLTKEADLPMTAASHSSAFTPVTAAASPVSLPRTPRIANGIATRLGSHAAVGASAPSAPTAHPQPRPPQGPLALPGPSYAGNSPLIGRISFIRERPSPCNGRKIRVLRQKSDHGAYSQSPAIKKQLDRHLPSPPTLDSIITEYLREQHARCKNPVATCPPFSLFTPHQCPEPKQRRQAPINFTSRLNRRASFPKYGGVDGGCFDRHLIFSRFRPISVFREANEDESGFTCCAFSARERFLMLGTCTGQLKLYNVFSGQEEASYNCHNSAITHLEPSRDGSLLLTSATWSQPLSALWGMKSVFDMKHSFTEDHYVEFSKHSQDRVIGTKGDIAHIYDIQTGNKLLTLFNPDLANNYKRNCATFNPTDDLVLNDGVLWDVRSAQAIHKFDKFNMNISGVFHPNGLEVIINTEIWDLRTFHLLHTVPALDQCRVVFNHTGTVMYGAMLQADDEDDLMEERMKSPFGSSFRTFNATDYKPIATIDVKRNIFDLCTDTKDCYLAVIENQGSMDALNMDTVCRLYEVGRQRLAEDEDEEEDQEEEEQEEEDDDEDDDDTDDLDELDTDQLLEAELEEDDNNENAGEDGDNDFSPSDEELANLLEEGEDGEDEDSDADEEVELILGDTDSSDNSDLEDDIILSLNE
Procedure: (A) Structures of a set of stereochemically defined azetidine acrylamides MY-1A (1), MY-1B (2), MY-3A (3), and MY-3B (4). (B) Heat map showing cysteines that were substantially engaged by azetidine acrylamides (>75% by at least one compound) in human T cells (20 μM compound, 3 h) as determined by MS-ABPP using an iodoacetamide desthiobiotin (IA-DTB) probe following previously described methods^21. Red arrow marks DCAF1_C1113. (C) MS-ABPP quantification of IA-DTB labeling of DCAF1_C1113 from T cells treated with the indicated azetidine acrylamides (20 μM, 3 h) relative to control T cells treated with DMSO. (D) MS-ABPP quantification of IA-DTB labeling of the indicated cysteines in DCAF1 from T cells treated with MY-1B (20 μM, 3 h) relative to control T cells treated with DMSO. For (B-D), data represent average values (for C and D, average values±SEM) from three independent experiments each performed with two technical replicates, where cysteines were required to have been quantified in at least two experiments for interpretation.
Guided by the principles of diversity-oriented synthesis^22, specifically the design of compounds with densely functionalized and entropically constrained sp^3-rich cores bearing one or more stereocenters, we generated a set of stereoisomeric azetidine acrylamides (FIG. 1A) and screened these compounds by cysteine-directed MS-ABPP^23-26 in primary human T cells. Across more than 10000 quantified cysteines, these experiments uncovered several azetidine acrylamide-cysteine interactions (FIG. 1B and Dataset S1), including the stereo-(FIG. 1B, C) and site-(FIG. 1D) selective engagement of C1113 on the E3 ligase substrate adaptor DCAF1. […] Other quantified cysteines in DCAF1 were unaffected by MY-1B (FIG. 1D).

HA-FKBP12 = target: T3, HA-FKBP12 (Homo sapiens, UniProt P62942); test: HA-FKBP12 abundance by Western blotting in transfected HEK293T cells; format: cell-based; details: for quantity of HA-FKBP12 and FLAG-DCAF1 in inhibitor-treated cells: HEK293T co-expressing HA-FKBP12 and FLAG-DCAF1
T3 construct: expressed in transfected cells; host or cells: HEK293T
T3 sequence (P62942 whole entry): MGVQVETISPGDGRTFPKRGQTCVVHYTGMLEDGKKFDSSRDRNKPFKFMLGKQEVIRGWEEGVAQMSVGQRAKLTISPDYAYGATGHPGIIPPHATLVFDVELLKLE
Text: (A) Left, western blots showing concentration-dependent effects of YT47R (upper) and YT41R (lower) on FKBP12 abundance in HEK293T cells expressing HA-FBKP12 with or without co-expression of FLAG-DCAF1. Right, quantification of HA-FKBP12 abundance in the indicated experimental groups. (B) Left, western blots showing effects of YT47R versus YT47S (upper) and YT41R versus YT41S (lower) on FKBP12 abundance in HEK293T cells co-expressing HA-FBKP12 and FLAG-DCAF1. Right, quantification of HA-FKBP12 abundance in the indicated experimental groups. (C) Western blots showing effects of YT47R (left blots) and YT41R (right blots) on FKBP12 abundance in HEK293T cells co-expressing HA-FBKP12 and either FLAG-DCAF1-WT or FLAG-DCAF1-C1113A mutant. Quantification of HA-FKBP12 abundance in the indicated experimental groups is shown in the adjacent bar graphs. For (A-C), FKBP12 abundance was determined at 24 h post-treatment with compounds, and data are mean values±SEM for three independent experiments. Statistical significance was calculated with unpaired two-tailed Student's t-tests comparing YT41R/YT47R- and DMSO-treated cells. ***P<0.001, ****P<0.0001.
(A) Left, western blots showing effects of proteasome (MG132) and Neddylation (MLN4924) inhibitors (1 h pre-treatment) on YT47R- and YT41R-dependent degradation of FKBP12 in HEK293T cells co-expressing HA-FBKP12 and FLAG-DCAF1. FKBP12 abundance was determined at 24 h post-treatment with YT47R or YT41R. Right, quantification of HA-FKBP12 abundance in the indicated experimental groups. (B) Left, western blots showing effects of the FKBP12 ligand SLF (20 μM) or DCAF1 ligand MY-11B (1 h pre-treatment with 20 μM SLF or 5 μM MY-11B) on YT47R- and YT41R-dependent degradation of FKBP12 in HEK293T cells co-expressing HA-FBKP12 and FLAG-DCAF1. FKBP12 abundance was determined at 24 h post-treatment with YT47R or YT41R. Right, quantification of HA-FKBP12 abundance in the indicated experimental groups. (C) Left, western blots showing effects of MY-11A or MY-11B (5 μM, 1 h pre-treatment) on YT47R- and YT41R-dependent degradation of FKBP12 in HEK293T cells co-expressing HA-FBKP12 and FLAG-DCAF1. FKBP12 abundance was determined at 24 h post-treatment with YT47R or YT41R. Right, quantification of HA-FKBP12 abundance in the indicated experimental groups. For (A-C), data are mean values±SEM for three-five independent experiments. Statistical significance was calculated with unpaired two-tailed Student's t-tests comparing YT41R/YT47R- and DMSO-treated cells. ****P<0.0001.
Figure S3. Concentration-dependent degradation of FKBP12 by DCAF1-directed electrophilic PROTACs. Top, western blots showing concentration-dependent effects of YT47R and YT41R on FKBP12 abundance in HEK293T cells co-expressing HA-FBKP12 and FLAG-DCAF1. Data are mean values±SEM for four independent experiments. Statistical significance was calculated with unpaired two-tailed Student's t-tests comparing YT41R/YT47R- and DMSO-treated cells. *P<0.1, **P<0.01, ***P<0.001, ****P<0.0001.
Figure S4. Time-dependent degradation of FKBP12 by DCAF1-directed electrophilic PROTACs. Top, western blots showing time-dependent effects of YT47R and YT41R (2 μM each) on FKBP12 abundance in HEK293T cells co-expressing HA-FBKP12 and FLAG-DCAF1. Data are mean values±SEM for four independent experiments. Statistical significance was calculated with unpaired two-tailed Student's t-tests comparing YT41R/YT47R- and DMSO-treated cells. ****P<0.0001.
We next treated HEK293T cells co-transfected with FLAG epitope-tagged full length DCAF1 (a.a.'s 1-1507) and HA (hemagglutinin) epitope-tagged FKBP12 with a concentration range of YT41R or YT47R and, after 24 h, measured HA-FKBP12 abundance by Western blotting.

C=CC(=O)C1C[C@@H](c2ccc(C(=O)NCCOCCOCCNC(=O)COc3cccc([C@@H](CCc4ccc(OC)c(OC)c4)OC(=O)[C@@H]4CCCCN4C(=O)C(=O)C(C)(C)CC)c3)cc2)[C@H]1C(=O)Nc1cccc2cccnc12 (stereo partly shown) [YT41S]
inhibition of MY-11B probe reactivity with recombinant DCAF1 ([1]; 2 h, then MY-11B 25 μM 1 h, YT41S and YT47S at single concentration 100 μM): did not impair

C=CC(=O)N1C[C@@H](c2ccc(Br)cc2)[C@H]1C(=O)Nc1cccc2cccnc12 [MY-1A, (2S,3R)-1-acryloyl-3-(4-bromophenyl)-N-(84uinoline-8-yl) azetidine-2-carboxamide]
block of MY-11B labeling of recombinant DCAF1 by pre-treatment ([1]; 2 h pre-treatment): not
reactivity with DCAF1_C1113 (DCAF1_C1113): inactive

NS(=O)(=O)OC[C@@H]1C[C@@H](n2ccc3c(N[C@H]4CCc5ccccc54)ncnc32)C[C@@H]1O [MLN4924, reference compound]
quantity of HA-FKBP12 and FLAG-DCAF1 in inhibitor-treated cells (HA-FKBP12): without causing alterations
effect on YT41R/YT47R-mediated degradation of HA-FKBP12 (HA-FKBP12; NAE inhibitor, 1 h pre-treatment): impaired

C=CC(=O)N1C[C@@H](c2ccc(Br)cc2)[C@@H]1C(=O)Nc1cccc2cccnc12 [MY-3B, (2S,3S)-1-acryloyl-3-(4-bromophenyl)-N-(87uinoline-8-yl) azetidine-2-carboxamide]
reactivity with DCAF1_C1113 (DCAF1_C1113): weaker enantioselective interaction

CC(C)C[C@@H](C=O)NC(=O)[C@H](CC(C)C)NC(=O)[C@H](CC(C)C)NC(=O)OCc1ccccc1 [MG132, reference compound] (Cbz-Leu-Leu-Leu-aldehyde)
effect on YT41R/YT47R-mediated degradation of HA-FKBP12 (HA-FKBP12; 5 μM, 1 h pre-treatment followed by 24 h co-treatment with YT41R/YT47R): blocked
quantity of HA-FKBP12 and FLAG-DCAF1 in inhibitor-treated cells (HA-FKBP12): increased quantities

CCC(C)(C)C(=O)C(=O)N1CCCC[C@H]1C(=O)O[C@H](CCc1ccc(OC)c(OC)c1)c1cccc(N)c1 [SLF, reference compound]
effect on YT41R and YT47R-mediated degradation of HA-FKBP12 (HA-FKBP12; 20 μM, 1 h pre-treatment): blocked

C=CC(=O)N1C[C@H](c2ccc(Br)cc2)[C@@H]1C(=O)Nc1cccc2cccnc12 [MY-1B, (2R,3S)-1-acryloyl-3-(4-bromophenyl)-N-(84uinoline-8-yl) azetidine-2-carboxamide]
block of MY-11B labeling of recombinant DCAF1 by pre-treatment ([1]; 2 h pre-treatment): blocked
IC50 ([1]; gel-ABPP, 2 h pre-treatment, 95% C.I.=13-38 μM, read-out: in vitro target engagement value (TE50) for labeling of DCAF1): ~25 µM
reactivity with DCAF1_C1113 (DCAF1_C1113): strongest reactivity
effect on other quantified cysteines in DCAF1 (DCAF1_C1113; 20 μM): unaffected
